Where two headings read alike, the source gives them in different places.
How the values were obtained:
HeLa cells [1] = assay: Pilot cell killing bioassay, saponin with or without 1.5 pM dianthin-EGF, 72 h; format: cell-based, human; set-up: key: Cell killing activity (+ or -); Cell killing activity (+ or -)
Procedure: HeLa cells were incubated for 72 h with the following constructs and cell viability before and after the 72 h-incubation was assessed. In the experiments, cells were exposed to 1.5 pM dianthin-EGF conjugate. A negative control were cells incubated with buffer vehicle and 10 microgram/ml saponin, without dianthin-EGF. Cell viability was set to 100% for the control in which both saponin and EGF-dianthin were omitted. […] Cell viability after 72 h was essentially 0%. For the chemically modified saponin variants, 10 microgram/ml saponin was tested in combination with 1.5 pM dianthin-EGF.

[2] = tested on: A431 cells (EGFR expressing); assay: Cell viability, saponin titration with or without […] EGFdianthin; format: cell-based, human
HeLa cells [3] = assay: cells; format: cell-based, human
Procedure: (§1) (FIGS. 66A and 66B). Next toxicity was determined, for this the modified saponins were titrated on HeLa and A431 cells. […] Next toxicity was determined, for this the modified saponins were titrated on HeLa and A431 cells.

A431 cells = assay: cells; format: cell-based; conditions: Homo sapiens, A-431, saponin alone, read-out: IC50 toxicity on A431 cells
Procedure: as §1

in vitro = format: cell-based, human; conditions: human red blood cells; read-out: IC50 hemolytic activity
Procedure: (§2) Cells were pelleted by centrifugation for 10 min, 800xg at RT.

human red blood cells = assay: cells; format: cell-based; conditions: Erythrocyte
Procedure: as §2

[4] = Critical micellar concentration (CMC) by ANS fluorescence; format: physicochemical; conditions: for CMC compared with the corresponding native/underivatised saponin: qualitative
Procedure: The critical micellar concentration (CMC) of saponins derived from Saponaria officinalis (SO) (Table A7) and derived from Quillaja saponaria (QS) (Table A8, and Table A9) was determined by the method of DeVendittis et al. (A fluorimetric method for the estimation of the critical micelle concentration of surfactants, Analytical Biochemistry, Volume 115, Issue 2, August 1981, Pages 278-286) as follows:
The emission spectrum of 8-Anilinonaphthalene-1-sulfonic acid (ANS) in either purified water (MQ) or PBS (Dulbecco’s PBS +/+) was determined at dry weight concentrations of saponins ranging from 1 to 1400 µM to cover the range below and above the CMC. Above the CMC, the fluorescence yield of ANS increases and the wavelength of maximum emission decreases due to portioning of the fluorescent dye into micelles. Fluorescence yields were recorded on a Fluoroskan Ascent FL (Thermo Scientific) at an excitation wavelength of 355 nm, and an emission wavelength of 460 nm. 6 µg at a concentration of 75.86 µM of ANS were used per sample and measurement.
The critical micellar concentration (CMC) of saponins was determined by the method of DeVendittis et al. (A fluorimetric method for the estimation of the critical micelle concentration of surfactants, Analytical Biochemistry, Volume 115, Issue 2, August 1981, Pages 278-286) as follows: […]

[5] = tested on: A2058 cells (EGFR non-expressing); assay: Cell viability, saponin titration with or without […] EGFdianthin; format: cell-based, human; conditions: saponin as single compound
[6] = 10 µg/ml SO1861 or SO1861-derivative alone
[7] = SO saponins, determined in PBS (Table A7)
[8] = 10 µg/ml SO1861 or SO1861-derivative + […] EGFdianthin
[9] = HeLa cells, saponin alone (Table A5), read-out: IC50 nM (Toxicity)
[10] = SO1831 and Aescin, determined in PBS (Table A11)

Molecule: CC(=O)OC1C(C)OC(OC2C(C)OC(OC(=O)C34CCC(C)(C)CC3C3=CCC5C6(C)CCC(OC7OC(C(=O)O)C(O)C(OC8OCC(O)C(O)C8O)C7OC7OC(CO)C(O)C(O)C7O)C(C)(C=NNC(=O)CCOCCOCCOCCOCCN=[N+]=[N-])C6CCC5(C)C3(C)CC4O)C(OC3OC(C)C(OC4OCC(O)C(OC5OC(CO)C(O)C(O)C5O)C4O)C(O)C3O)C2O)C(O)C1OC1OCC(O)C(O)C1O (stereo not shown)
- Cell killing activity (+ or -) (HeLa cells [1]; [6]): -
- IC50 ([2]; read-out: general toxicity in absence of EGFdianthin, saponin as single compound): > 10 µM

Molecule: CC[C@H](C)[C@H](C[C@H](O)CC(=O)OC1C(C)OC(OC(=O)[C@]23CCC(C)(C)CC2C2=CCC4[C@@]5(C)CC[C@H](OC6OC(C(=O)NC(C)(CO)CO)C(O)C(OC7OCC(O)C(O)C7O)C6OC6OC(CO)C(O)C(O)C6O)[C@@](C)(/C=N/NC(=O)CCCCCN6C(=O)C=CC6=O)C5CC[C@@]4(C)[C@]2(C)C[C@H]3O)C(OC2OC(C)C(OC3OCC(O)C(OC4OCC(O)(CO)C4O)C3O)C(O)C2O)C1O)OC(=O)C[C@@H](O)C[C@H](OC1OC(CO)C(O)C1O)[C@@H](C)CC (stereo partly shown) [QS21-(Ald-EMCH)-(Glu-AMPD)]
- IC50 (HeLa cells [3]; Homo sapiens, HeLa cells (Table A12, Example 8), read-out: IC50 nM (Toxicity)): > 30000 nM
- IC50 (HeLa cells [3]; Homo sapiens, HeLa, saponin alone, read-out: IC50 toxicity on HeLa cells): > 30000 nM
- IC50 (A431 cells): > 30 µM
- HC50 (in vitro): > 1 mM
- IC50 (human red blood cells; human red blood cells (Table A12, Example 8), read-out: IC50 nM (hemolysis)): > 300000 nM
- IC50 (human red blood cells; human red blood cells, read-out: IC50 hemolytic activity): > 300000 nM

Molecule: CC[C@H](C)[C@H](C[C@H](O)CC(=O)OC1C(C)OC(OC(=O)[C@]23CCC(C)(C)CC2C2=CCC4[C@@]5(C)CC[C@H](OC6OC(C(=O)O)C(O)C(OC7OCC(O)C(O)C7O)C6OC6OC(CO)C(O)C(O)C6O)[C@@](C)(/C=N/NC(=O)CCCCCN6C(=O)C=CC6=O)C5CC[C@@]4(C)[C@]2(C)C[C@H]3O)C(OC2OC(C)C(OC3OCC(O)C(OC4OCC(O)(CO)C4O)C3O)C(O)C2O)C1O)OC(=O)C[C@@H](O)C[C@H](OC1OC(CO)C(O)C1O)[C@@H](C)CC (stereo partly shown) [QS21-Ald-EMCH]
- IC50 (HeLa cells [3]; Homo sapiens, HeLa, read-out: IC50 nM (Toxicity), HeLa cells (Table A12, Example 8)): > 30000 nM
- IC50 (human red blood cells; Homo sapiens, read-out: IC50 hemolytic activity, human red blood cells): 30000 nM

Molecule: CC(=O)OC1C(C)OC(OC2C(C)OC(OC(=O)[C@]34CCC(C)(C)CC3C3=CCC5[C@@]6(C)CC[C@H](OC7OC(C(=O)O)C(O)C(OC8OCC(O)C(O)C8O)C7OC7OC(CO)C(O)C(O)C7O)[C@@](C)(C=O)C6CC[C@@]5(C)[C@]3(C)C[C@H]4O)C(OC3OC(C)C(OC4OCC(O)C(OC5OC(CO)C(O)C(O)C5O)C4O)C(O)C3O)C2O)C(O)C1OC1OCC(O)C(O)C1O (stereo partly shown) [SO1861, reference compound]
- CMC ([4]; SO1861 saponins): 185 µM
- CMC [4, 7]: 185 ± 19 µM
- Cell killing activity (+ or -) (HeLa cells [1]; [8]): +
- Cell killing activity (+ or -) (HeLa cells [1]; [6]): -
- general toxicity in absence of EGFdianthin ([2]; saponin as single compound): strong cell viability reduction
- general toxicity in absence of EGFdianthin [5]: strong cell viability reduction

Molecule: CC(=O)OC1C(C)OC(OC2C(C)OC(OC(=O)C34CCC(C)(C)CC3C3=CCC5C6(C)CCC(OC7OC(C(=O)NC(C)(CO)CO)C(O)C(OC8OCC(O)C(O)C8O)C7OC7OC(CO)C(O)C(O)C7O)C(C)(C=NNC(=O)CCCCCN7C(=O)C=CC7=O)C6CCC5(C)C3(C)CC4O)C(OC3OC(C)C(OC4OCC(O)C(OC5OC(CO)C(O)C(O)C5O)C4O)C(O)C3O)C2O)C(O)C1OC1OCC(O)C(O)C1O (stereo not shown) [SO1861-(Ald-EMCH)-(Glu-AMPD)]
- CMC [4, 7]: > 30 µM
- CMC compared with the corresponding native/underivatised saponin [4]: lower CMC values

Molecule: CC(=O)OC1C(C)OC(OC2C(C)OC(OC(=O)[C@]34CCC(C)(C)CC3C3=CCC5[C@@]6(C)CC[C@H](OC7OC(C(=O)NC(C)(CO)CO)C(O)C(OC8OCC(O)C(O)C8O)C7OC7OC(CO)C(O)C(O)C7O)[C@@](C)(CO)C6CC[C@@]5(C)[C@]3(C)C[C@H]4O)C(OC3OC(C)C(OC4OCC(O)C(OC5OC(CO)C(O)C(O)C5O)C4O)C(O)C3O)C2O)C(O)C1OC1OCC(O)C(O)C1O (stereo partly shown) [SO1861-(Ald-OH)-(Glu-AMPD)]
- CMC [4, 7]: 50 ± 5 µM
- CMC compared with the corresponding native/underivatised saponin [4]: lower CMC values

Molecule: CC(=O)OC1C(C)OC(OC2C(C)OC(OC(=O)[C@]34CCC(C)(C)CC3C3=CCC5[C@@]6(C)CC[C@H](OC7OC(C(=O)NCCN8C(=O)C=CC8=O)C(O)C(OC8OCC(O)C(O)C8O)C7OC7OC(CO)C(O)C(O)C7O)[C@@](C)(CO)C6CC[C@@]5(C)[C@]3(C)C[C@H]4O)C(OC3OC(C)C(OC4OCC(O)C(OC5OC(CO)C(O)C(O)C5O)C4O)C(O)C3O)C2O)C(O)C1OC1OCC(O)C(O)C1O (stereo partly shown) [SO1861-(Glu-AEM)-(Ald-OH)]
- CMC [4, 7]: 90 ± 10 µM
- CMC compared with the corresponding native/underivatised saponin [4]: lower CMC values

Molecule: CC(=O)OC1C(C)OC(OC2C(C)OC(OC(=O)[C@]34CCC(C)(C)CC3C3=CCC5[C@@]6(C)CC[C@H](OC7OC(C(=O)O)C(O)C(OC8OCC(O)C(O)C8O)C7OC7OC(CO)C(O)C(O)C7O)[C@@](C)(/C=N/NC(=O)CCCCCN7C(=O)C[C@H](SCCO)C7=O)C6CC[C@@]5(C)[C@]3(C)CC4O)C(OC3OC(C)C(OC4OCC(O)C(OC5OC(CO)C(O)C(O)C5O)C4O)C(O)C3O)C2O)C(O)C1OC1OCC(O)C(O)C1O (stereo partly shown) [SO1861-Ald-EMCH-blocked]
- IC50 (HeLa cells [3]; [9]): > 100000 nM
- CMC [4, 7]: 50 ± 5 µM

Molecule: CC(=O)OC1C(C)OC(OC2C(C)OC(OC(=O)[C@]34CCC(C)(C)CC3C3=CCC5[C@@]6(C)CC[C@H](OC7OC(C(=O)O)C(O)C(OC8OCC(O)C(O)C8O)C7OC7OC(CO)C(O)C(O)C7O)[C@@](C)(CO)C6CC[C@@]5(C)[C@]3(C)C[C@H]4O)C(OC3OC(C)C(OC4OCC(O)C(OC5OC(CO)C(O)C(O)C5O)C4O)C(O)C3O)C2O)C(O)C1OC1OCC(O)C(O)C1O (stereo partly shown) [SO1861-Ald-OH]
- CMC [4, 7]: 135 ± 14 µM
- CMC compared with the corresponding native/underivatised saponin [4]: higher CMC values
- CMC compared with the corresponding native/underivatised saponin ([4]; listed as 6): increased CMC

Molecule: CC(=O)OC1C(C)OC(OC2C(C)OC(OC(=O)[C@]34CCC(C)(C)CC3C3=CCC5[C@@]6(C)CC[C@H](OC7OC(C(=O)NCCN8C(=O)C=CC8=O)C(O)C(OC8OCC(O)C(O)C8O)C7OC7OC(CO)C(O)C(O)C7O)[C@@](C)(C=O)C6CC[C@@]5(C)[C@]3(C)C[C@H]4O)C(OC3OC(C)C(OC4OCC(O)C(OC5OC(CO)C(O)C(O)C5O)C4O)C(O)C3O)C2O)C(O)C1OC1OCC(O)C(O)C1O (stereo partly shown) [SO1861-Glu-AEM]
- IC50 (HeLa cells [3]; [9]): > 100000 nM
- CMC [4, 7]: 45 ± 5 µM
- CMC compared with the corresponding native/underivatised saponin [4]: lower CMC values

Molecule: CC(=O)OC1C(C)OC(OC2C(C)OC(OC(=O)[C@]34CCC(C)(C)CC3C3=CCC5[C@@]6(C)CC[C@H](OC7OC(C(=O)NC(C)(CO)CO)C(O)C(OC8OCC(O)C(O)C8O)C7OC7OC(CO)C(O)C(O)C7O)[C@@](C)(C=O)C6CC[C@@]5(C)[C@]3(C)C[C@H]4O)C(OC3OC(C)C(OC4OCC(O)C(OC5OC(CO)C(O)C(O)C5O)C4O)C(O)C3O)C2O)C(O)C1OC1OC(C)C(O)C(O)C1O (stereo partly shown) [SO1861-Glu-AMPD]
- CMC [4, 7]: 50 ± 5 µM
- CMC compared with the corresponding native/underivatised saponin [4]: lower CMC values

Molecule: CC(=O)On1nnc2cccnc21 [SO1861-Glu-HATU]
- Cell killing activity (+ or -) (HeLa cells [1]; [8]): +
- Cell killing activity (+ or -) (HeLa cells [1]; [6]): -

Molecule: Aescin [Aescin (95%), reference compound]
- CMC [4, 10]: 130 ± 13 µM

Molecule: Aescin [Aescin (98%), reference compound]
- CMC [4, 10]: 135 ± 14 µM

Molecule: QS21 [reference compound]
- CMC ([4]; QS saponins (Table A8, MQ)): 49 µM
- CMC ([4]; QS saponins, determined in purified water (MQ) (Table A8)): 49 ± 5 µM
- CMC ([4]; in MQ (Table A9)): 49 ± 5 µM
- CMC ([4]; modified QS21 saponins, determined in PBS (Table A9)): 40 ± 5 µM

Reference: patent publication US20230365617A1, “SAPONIN DERIVATIVES FOR USE IN MEDICINE” (priority 2020, published 2023)
